Measured values: ChEMBL document CHEMBL1201862, “PubChem BioAssay data set” (2004)
Active and inactive are the calls of the source.

Assays:
[1] = target: Eukaryotic translation initiation factor 4E (Mus musculus, UniProt P63073); assay: eIF4E–eIF4G protein interaction inhibitors, dose response, biochemical, TR-FRET (AID 855); format: functional;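 note: potency for disrupting eIF4E binding to eIF4GI seen as loss of FRET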
[2] = M. tuberculosis H37Rv growth inhibitors, H37Rv strain (AID 1626); format: functional
[3] = target: T1, Tyrosine-protein phosphatase non-receptor type 7 (Homo sapiens, UniProt P35236); assay: inhibitors of human HePTP phosphatase, […], biochemical, absorbance, leukemia target (AID 521); format: functional
T1 sequence (P35236 whole entry): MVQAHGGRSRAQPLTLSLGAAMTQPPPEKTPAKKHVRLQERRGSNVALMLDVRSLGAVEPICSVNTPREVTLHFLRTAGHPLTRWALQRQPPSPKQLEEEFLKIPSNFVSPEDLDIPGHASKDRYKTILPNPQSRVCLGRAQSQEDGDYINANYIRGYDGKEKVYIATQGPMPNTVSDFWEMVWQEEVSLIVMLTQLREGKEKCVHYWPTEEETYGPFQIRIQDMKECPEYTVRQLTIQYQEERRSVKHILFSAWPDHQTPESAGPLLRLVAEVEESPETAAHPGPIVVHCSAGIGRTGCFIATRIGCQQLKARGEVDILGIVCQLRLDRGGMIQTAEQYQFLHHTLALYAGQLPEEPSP

[4] = target: Procathepsin L (Homo sapiens, UniProt P07711); assay: cathepsin L inhibitors, dose response, counter-screen for M1/M17 aminopeptidase inhibitor project, biochemical, QFRET, 1536-well (AID 2214)
[5] = target: T2, Leucine aminopeptidase (Plasmodium falciparum 3D7, UniProt Q8IL11); assay: P. falciparum M17LAP inhibitors, primary screen, biochemical, fluorogenic H-Leu-NHMec substrate, 1536-well (AID 1619); format: functional
T2 sequence (Q8IL11 whole entry): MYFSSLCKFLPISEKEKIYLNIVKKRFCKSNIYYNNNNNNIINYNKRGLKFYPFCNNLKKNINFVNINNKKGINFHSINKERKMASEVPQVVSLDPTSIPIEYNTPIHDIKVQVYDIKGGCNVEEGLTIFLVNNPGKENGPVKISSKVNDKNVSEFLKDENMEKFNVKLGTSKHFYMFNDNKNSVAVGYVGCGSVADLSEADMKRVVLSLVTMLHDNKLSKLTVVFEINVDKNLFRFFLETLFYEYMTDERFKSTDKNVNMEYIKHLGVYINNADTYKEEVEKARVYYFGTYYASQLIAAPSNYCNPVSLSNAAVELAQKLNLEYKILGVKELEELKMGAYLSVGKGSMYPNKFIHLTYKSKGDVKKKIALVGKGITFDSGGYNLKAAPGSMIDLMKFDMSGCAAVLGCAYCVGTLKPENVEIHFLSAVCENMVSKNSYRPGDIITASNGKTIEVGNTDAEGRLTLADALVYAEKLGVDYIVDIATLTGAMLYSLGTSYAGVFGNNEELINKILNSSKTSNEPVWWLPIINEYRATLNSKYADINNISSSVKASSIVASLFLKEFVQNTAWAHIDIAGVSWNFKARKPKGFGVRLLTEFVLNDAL

[6] = target: T3, Aspartyl aminopeptidase (Plasmodium falciparum 3D7, UniProt Q8I2J3); assay: Counterscreen for inhibitors of M1 and M17 aminopeptidases: QFRET-based biochemical high throughput dose response assay for inhibitors of the Plasmodium falciparum M18 Aspartyl Aminopeptidase (PFM18AAP). [Related PubChem assays: 1619 (Screening assay (M17LAP inhibitors).), 1445 (Screening assay (M1AAP inhibitors).)]
T3 sequence (Q8I2J3 whole entry): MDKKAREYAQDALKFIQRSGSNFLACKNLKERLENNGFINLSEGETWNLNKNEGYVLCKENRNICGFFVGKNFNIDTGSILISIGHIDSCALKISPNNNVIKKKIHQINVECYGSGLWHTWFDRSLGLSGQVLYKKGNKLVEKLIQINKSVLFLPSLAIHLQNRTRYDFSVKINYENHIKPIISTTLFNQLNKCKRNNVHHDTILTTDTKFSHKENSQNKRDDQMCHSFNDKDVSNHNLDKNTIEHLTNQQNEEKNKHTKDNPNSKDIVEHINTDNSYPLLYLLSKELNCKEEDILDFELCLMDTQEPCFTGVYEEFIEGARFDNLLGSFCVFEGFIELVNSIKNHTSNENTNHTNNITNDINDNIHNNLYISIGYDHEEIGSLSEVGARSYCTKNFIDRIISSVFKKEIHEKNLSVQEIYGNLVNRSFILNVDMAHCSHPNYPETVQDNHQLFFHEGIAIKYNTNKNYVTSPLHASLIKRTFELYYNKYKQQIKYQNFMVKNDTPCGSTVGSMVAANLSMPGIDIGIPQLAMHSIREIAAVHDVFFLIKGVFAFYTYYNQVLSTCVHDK

[7] = target: Estrogen receptor beta (Homo sapiens, UniProt Q92731);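 note: recombinant ER-beta bound to coactivator SRC1 peptide in presence of estradiol agonist; inhibitors block coactivator peptide binding and lower the FRET signal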
[8] = target: NAD-dependent protein deacylase sirtuin-5, mitochondrial (Homo sapiens, UniProt Q9NXA8); assay: SIRT5 desuccinylase inhibitors, dose response, biochemical, fluorescence imaging, cherry-pick, set 5 (AID 720591);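 note: desuccinylation of succinyl peptide AMC substrate read as fluorescence after trypsin release; potency of inhibitors that lower fluorescence and may act on trypsin instead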
[9] = target: Cytochrome P450 2D6 (Homo sapiens, UniProt P10635);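 note: CYP2D6 member of a cytochrome P450 panel assay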
[10] = target: Cytochrome P450 3A4 (Homo sapiens, UniProt P08684);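 note: CYP3A4 tested as one member of a cytochrome P450 panel screen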
[11] = HepG2 cell cytotoxicity, dose response, cytotoxicity control for Shn3 inhibitor project, CellTiter-Glo, cherry-picked (AID 624134); format: functional, cell-based
[12] = inhibitors of SNCA 5'UTR-driven reporter translation, confirmation, H4 neuroglioma cells, luminescence (AID 1988); format: functional, cell-based
[13] = Luminescence Cell-Based Dose Response HTS to Identify Inhibitors of 5'UTR Stem-Loop Driven Prion Protein mRNA Translation in H4 Neuroglioblastoma Cells. [Related pubchem assays: 1827 (Project Summary), 1813 (Primary HTS)]; format: functional
[14] = target: T4, Ubiquitin-conjugating enzyme E2 N (Homo sapiens, UniProt P61088); format: functional;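 note: Dose-response confirmation in a TR-FRET assay detecting UBC13-driven polyubiquitin chain formation, inhibition measured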
T4 sequence (P61088 whole entry): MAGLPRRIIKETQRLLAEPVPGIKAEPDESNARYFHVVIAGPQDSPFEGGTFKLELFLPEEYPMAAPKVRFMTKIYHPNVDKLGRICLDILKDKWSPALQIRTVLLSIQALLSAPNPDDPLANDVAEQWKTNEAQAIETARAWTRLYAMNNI

[15] = inhibitors of firefly luciferase expression or activity, dose response, H4 neuroglioma cells, luminescence (AID 1990); format: functional, cell-based
[16] = cytotoxicity in HPDE-C7 cells, cell-based, fluorescence, HTS (AID 430); format: functional; conditions: Homo sapiens
[17] = target: Cytochrome P450 2C9 (Homo sapiens, UniProt P11712)
[18] = target: Cytochrome P450 2C19 (Homo sapiens, UniProt P33261); assay: Cytochrome panel assay with activity outcomes. Panel member name: p450-cyp2c19 Compounds with AC50 equal or less than 10 uM are considered active; format: functional; conditions: read-out: AC50
[19] = control 3'UTR Renilla luciferase suppression, dose response, counter-screen for Shn3 inhibitor project, cell-based, Clone20-Shn3RL, cherry-picked (AID 624133); format: functional
[20] = cytotoxicity in KRAS-transformed pancreatic duct cells, primary screen, cell-based, fluorescence, HTS (AID 431); format: functional; conditions: Homo sapiens;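 note: cell line used: HPDE-C7K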
[21] = Shn3 3'UTR reporter inhibitors, dose response, cell-based, Clone20 osteoblasts, firefly luciferase, cherry-picked (AID 624132); format: functional;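 note: firefly luciferase luminescence from reporter carrying the Shn3 3'UTR in osteoblasts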
[22] = growth suppression of PTEN-null colon cells, dose response, cell-based, HCT116 PTEN knockout (AID 1047); format: functional;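 note: HCT116 colon tumor cells with PTEN knocked out; cells exposed to compound for 60 hours before readout; potency for loss of cell viability measured by luminescence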
[23] = growth suppression of beta-catenin-knockout colon cells, dose response, cell-based, HCT116, human colon tumor (AID 1045); format: functional;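 note: HCT116 colon tumor cells with beta catenin knocked out; cells exposed to compound for 60 hours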
[24] = target: T5, Rac GTPase-activating protein 1 (Homo sapiens, UniProt Q9H0H5); assay: MgcRacGAP GTPase-activating activity inhibitors, confirmation, biochemical, ADP Hunter fluorescence, primary and confirmatory (AID 624330); format: functional
T5 sequence (Q9H0H5 whole entry): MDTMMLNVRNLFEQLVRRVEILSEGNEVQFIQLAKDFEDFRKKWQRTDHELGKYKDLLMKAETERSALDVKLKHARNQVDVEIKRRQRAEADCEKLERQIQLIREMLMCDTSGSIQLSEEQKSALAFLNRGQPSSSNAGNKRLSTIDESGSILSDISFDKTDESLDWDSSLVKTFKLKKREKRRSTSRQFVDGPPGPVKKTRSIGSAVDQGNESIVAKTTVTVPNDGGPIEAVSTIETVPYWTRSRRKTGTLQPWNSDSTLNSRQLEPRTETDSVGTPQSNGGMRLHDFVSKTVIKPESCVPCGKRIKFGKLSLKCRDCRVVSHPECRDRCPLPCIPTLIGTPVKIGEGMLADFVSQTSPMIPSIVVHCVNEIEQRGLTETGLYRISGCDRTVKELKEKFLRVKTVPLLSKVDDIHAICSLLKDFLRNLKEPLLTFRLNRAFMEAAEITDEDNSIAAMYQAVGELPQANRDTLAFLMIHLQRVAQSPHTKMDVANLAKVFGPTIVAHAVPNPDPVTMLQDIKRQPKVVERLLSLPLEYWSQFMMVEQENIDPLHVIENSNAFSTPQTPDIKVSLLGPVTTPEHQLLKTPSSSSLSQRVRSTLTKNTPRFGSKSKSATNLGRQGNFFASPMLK

[25] = inhibitors of Vif binding to APOBEC3G peptide, primary screen, biochemical, TR-FRET, GST-Vif 1-94, biotin-A3G peptide, dose response retest (AID 1117319); format: functional;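 note: TR-FRET signal of purified GST-Vif binding a biotinylated A3G peptide; inhibitors lower the FRET signal by blocking Vif and A3G binding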
[26] = target: T6, RNA-editing ligase 1, mitochondrial (Trypanosoma brucei brucei, UniProt P86926); assay: TbREL1 ligase inhibitors, dose response, biochemical, fluorescence, Trypanosoma brucei (AID 1117295); format: functional
T6 sequence (P86926 whole entry): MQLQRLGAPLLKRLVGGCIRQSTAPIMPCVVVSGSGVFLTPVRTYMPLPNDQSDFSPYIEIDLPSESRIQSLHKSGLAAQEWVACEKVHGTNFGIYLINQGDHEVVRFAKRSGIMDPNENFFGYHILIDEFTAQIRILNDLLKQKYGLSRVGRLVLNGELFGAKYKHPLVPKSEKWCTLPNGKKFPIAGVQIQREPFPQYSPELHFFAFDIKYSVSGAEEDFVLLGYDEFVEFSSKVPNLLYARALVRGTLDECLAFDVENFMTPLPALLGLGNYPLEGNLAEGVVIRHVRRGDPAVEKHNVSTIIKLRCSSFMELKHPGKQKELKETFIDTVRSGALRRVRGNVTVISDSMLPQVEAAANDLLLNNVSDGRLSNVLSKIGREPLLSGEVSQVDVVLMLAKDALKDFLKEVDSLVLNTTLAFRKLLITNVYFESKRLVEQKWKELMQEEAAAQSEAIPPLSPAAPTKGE

[27] = target: Large T antigen (Simian virus 40, UniProt P03070); format: functional, Betapolyomavirus macacae;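 note: Confirmatory-stage PubChem screen for compounds that inhibit SV40 T antigen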
Sequence of Large T antigen (P03070 whole entry): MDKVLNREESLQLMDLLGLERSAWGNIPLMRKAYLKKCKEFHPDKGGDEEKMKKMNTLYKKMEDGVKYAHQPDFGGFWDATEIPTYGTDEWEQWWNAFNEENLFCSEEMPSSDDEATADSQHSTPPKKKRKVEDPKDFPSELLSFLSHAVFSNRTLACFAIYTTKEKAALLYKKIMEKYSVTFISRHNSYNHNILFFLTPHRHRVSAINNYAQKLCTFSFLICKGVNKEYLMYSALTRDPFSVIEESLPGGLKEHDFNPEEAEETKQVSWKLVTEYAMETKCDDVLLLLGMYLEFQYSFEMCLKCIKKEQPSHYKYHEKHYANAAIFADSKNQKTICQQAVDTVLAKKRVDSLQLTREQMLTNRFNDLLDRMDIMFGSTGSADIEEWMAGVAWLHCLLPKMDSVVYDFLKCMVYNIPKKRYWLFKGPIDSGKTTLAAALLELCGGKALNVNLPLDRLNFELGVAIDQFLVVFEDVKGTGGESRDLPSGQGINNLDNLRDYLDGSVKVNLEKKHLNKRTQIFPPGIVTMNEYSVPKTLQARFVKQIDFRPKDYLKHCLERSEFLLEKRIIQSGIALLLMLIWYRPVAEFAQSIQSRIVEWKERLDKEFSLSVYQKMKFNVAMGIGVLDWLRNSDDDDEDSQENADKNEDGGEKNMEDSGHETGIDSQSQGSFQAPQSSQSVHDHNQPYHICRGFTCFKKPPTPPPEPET

Sequence of Procathepsin L (P07711 whole entry): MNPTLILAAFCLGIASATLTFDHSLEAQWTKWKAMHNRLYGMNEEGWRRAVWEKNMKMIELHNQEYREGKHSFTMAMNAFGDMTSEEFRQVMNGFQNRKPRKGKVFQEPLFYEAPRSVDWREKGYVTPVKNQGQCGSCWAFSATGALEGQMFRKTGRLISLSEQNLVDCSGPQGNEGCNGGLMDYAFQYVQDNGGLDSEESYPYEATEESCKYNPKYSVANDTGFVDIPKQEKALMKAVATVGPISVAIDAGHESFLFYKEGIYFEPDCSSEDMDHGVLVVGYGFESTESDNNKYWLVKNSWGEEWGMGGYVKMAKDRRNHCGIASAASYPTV
Sequence of NAD-dependent protein deacylase sirtuin-5, mitochondrial (Q9NXA8 whole entry): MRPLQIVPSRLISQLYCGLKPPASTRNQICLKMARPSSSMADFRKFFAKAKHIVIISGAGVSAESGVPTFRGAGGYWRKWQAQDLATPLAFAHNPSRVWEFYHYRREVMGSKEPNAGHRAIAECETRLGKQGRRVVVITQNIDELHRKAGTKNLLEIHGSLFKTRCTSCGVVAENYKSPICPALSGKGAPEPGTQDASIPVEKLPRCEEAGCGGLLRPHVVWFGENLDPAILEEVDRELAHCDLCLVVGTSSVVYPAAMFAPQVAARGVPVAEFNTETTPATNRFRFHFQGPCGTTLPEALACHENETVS
Sequence of Cytochrome P450 2D6 (P10635 whole entry): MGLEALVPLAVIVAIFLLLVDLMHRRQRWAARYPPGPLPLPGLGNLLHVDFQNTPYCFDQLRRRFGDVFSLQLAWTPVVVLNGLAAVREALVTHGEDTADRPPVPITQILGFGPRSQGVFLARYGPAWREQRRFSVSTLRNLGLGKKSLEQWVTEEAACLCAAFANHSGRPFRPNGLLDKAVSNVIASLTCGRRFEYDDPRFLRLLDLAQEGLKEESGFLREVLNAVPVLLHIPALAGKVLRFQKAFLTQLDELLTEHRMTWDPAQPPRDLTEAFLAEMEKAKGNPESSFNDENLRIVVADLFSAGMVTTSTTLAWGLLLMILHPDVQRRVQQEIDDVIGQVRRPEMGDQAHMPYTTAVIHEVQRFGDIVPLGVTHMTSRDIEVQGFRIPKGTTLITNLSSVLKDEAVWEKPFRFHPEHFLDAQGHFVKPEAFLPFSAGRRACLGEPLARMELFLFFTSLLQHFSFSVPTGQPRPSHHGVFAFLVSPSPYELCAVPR
Sequence of Cytochrome P450 2C19 (P33261 whole entry): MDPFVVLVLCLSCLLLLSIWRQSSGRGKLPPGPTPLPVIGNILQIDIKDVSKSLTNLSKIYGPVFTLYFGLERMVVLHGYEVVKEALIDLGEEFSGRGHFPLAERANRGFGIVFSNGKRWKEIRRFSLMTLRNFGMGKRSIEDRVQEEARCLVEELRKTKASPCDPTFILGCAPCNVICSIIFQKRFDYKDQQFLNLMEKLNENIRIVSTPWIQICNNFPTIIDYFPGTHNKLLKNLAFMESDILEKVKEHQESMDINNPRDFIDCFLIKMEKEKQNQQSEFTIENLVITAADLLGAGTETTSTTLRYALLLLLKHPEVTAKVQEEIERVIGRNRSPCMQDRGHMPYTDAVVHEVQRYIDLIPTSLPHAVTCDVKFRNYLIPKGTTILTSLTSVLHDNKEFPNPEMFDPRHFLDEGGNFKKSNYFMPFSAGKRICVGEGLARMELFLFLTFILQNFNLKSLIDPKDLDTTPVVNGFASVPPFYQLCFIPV
Sequence of Estrogen receptor beta (Q92731 whole entry): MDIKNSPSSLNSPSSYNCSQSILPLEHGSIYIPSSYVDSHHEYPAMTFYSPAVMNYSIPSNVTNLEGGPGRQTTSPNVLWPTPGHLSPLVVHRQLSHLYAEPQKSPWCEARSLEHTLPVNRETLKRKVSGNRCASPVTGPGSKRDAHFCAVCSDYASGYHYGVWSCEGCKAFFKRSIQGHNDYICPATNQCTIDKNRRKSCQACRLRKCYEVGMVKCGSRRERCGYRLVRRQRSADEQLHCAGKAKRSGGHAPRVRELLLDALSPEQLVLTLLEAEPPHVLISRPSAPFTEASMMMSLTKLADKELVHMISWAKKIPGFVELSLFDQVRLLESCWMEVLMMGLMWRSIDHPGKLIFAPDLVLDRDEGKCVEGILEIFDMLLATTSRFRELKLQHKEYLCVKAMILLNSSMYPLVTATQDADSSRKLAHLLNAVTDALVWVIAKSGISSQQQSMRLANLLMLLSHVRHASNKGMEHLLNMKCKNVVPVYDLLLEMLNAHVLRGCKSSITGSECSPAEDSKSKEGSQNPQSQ
Sequence of Eukaryotic translation initiation factor 4E (P63073 whole entry): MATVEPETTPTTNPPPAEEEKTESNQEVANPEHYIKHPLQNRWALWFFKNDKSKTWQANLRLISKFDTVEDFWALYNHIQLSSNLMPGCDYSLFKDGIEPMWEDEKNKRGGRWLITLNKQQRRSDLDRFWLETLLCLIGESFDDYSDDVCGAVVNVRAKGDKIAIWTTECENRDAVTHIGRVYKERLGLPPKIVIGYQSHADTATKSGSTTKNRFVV
Sequence of Cytochrome P450 3A4 (P08684 whole entry): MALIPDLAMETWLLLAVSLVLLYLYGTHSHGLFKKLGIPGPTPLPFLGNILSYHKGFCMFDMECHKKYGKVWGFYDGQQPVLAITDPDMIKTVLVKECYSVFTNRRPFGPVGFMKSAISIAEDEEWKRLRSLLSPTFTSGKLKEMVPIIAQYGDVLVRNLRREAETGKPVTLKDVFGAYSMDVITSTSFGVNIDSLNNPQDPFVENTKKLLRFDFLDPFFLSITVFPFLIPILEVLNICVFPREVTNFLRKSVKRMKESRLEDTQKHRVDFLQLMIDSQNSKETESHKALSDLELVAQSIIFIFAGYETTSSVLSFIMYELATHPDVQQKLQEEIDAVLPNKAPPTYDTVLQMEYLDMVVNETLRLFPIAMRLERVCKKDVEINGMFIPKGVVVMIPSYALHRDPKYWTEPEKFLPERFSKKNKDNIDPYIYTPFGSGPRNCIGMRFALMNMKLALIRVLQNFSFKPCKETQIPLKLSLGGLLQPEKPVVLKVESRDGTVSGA
Sequence of Cytochrome P450 2C9 (P11712 whole entry): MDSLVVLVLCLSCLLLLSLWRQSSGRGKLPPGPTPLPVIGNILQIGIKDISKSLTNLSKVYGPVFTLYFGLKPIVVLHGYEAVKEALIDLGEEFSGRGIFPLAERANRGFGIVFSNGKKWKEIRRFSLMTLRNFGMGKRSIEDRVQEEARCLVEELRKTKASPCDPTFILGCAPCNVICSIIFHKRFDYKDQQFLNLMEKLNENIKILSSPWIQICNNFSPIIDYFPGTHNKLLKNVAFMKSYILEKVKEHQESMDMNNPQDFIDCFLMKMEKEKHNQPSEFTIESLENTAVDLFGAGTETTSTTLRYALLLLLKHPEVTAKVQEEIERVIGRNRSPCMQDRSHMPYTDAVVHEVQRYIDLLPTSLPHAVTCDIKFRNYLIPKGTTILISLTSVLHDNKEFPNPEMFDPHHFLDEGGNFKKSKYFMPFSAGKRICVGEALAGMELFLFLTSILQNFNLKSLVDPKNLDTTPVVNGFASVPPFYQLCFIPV

For `CCOC(=O)c1cnn(C(=O)c2ccccc2)c1N`, the IC50 [1] was > 64 µM (inactive) and the IC50 [2] was > 100 µM (active).

For `CCN(CC)CCNc1ccnc2cc(Cl)ccc12`, the IC50 [3] was > 100 µM (not active).

With `CCc1cc2cc(OC)ccc2nc1SCC(=O)Nc1cc(OC)c(OC)cc1C(=O)O` the IC50 [4] was > 59.6 µM (not active), the IC50 [5] was < 1 µM (active) and the IC50 [6] was > 73.5 µM (not active).

In the case of `CCc1cc2c(=O)n(CC)c(SC(C)C(=O)Nc3c(C)n(C)n(-c4ccccc4)c3=O)nc2s1` (stereo unspecified), the IC50 [7] is reported as > 50 µM (not active).

In the case of `CN(Cc1ccccc1)C(c1ccnc2ccccc12)c1nnnn1-c1ccc2c(c1)OCCO2` (stereo unspecified), the AC50 [8] is reported as 14.2 µM (active).

For `COc1ccc(CCN2CCC(Nc3nc4ccccc4n3Cc3ccc(F)cc3)CC2)cc1` [ASTEMIZOLE], the AC50 [9] was 7.94 µM (active), the AC50 [10] was “inactive” and the AC50 [11] was 12.6 µM (active). For the same compound, the EC50 [12] was 7.94 µM (active), the EC50 [13] was 9.34 µM (active) and the IC50 [14] was > 20 µM (inactive). The EC50 [15] was > 60 µM (not active), the EC50 [16] was 12.4 µM (active) and the AC50 [17] was “inactive”. For the same compound, the AC50 [18] was 7.94 µM (inconclusive), the AC50 [19] was 19.7 µM (active) and the EC50 [20] was 13.6 µM (active). For the same compound, the AC50 [21] was 3.03 µM (active), the EC50 [22] was 5.87 µM (active) and the EC50 [23] was 3.78 µM (active).

For `CC(C)(C)n1nnnc1C(c1ccc(C#N)cc1)N1CCCC2(CCCCC2)C1` (stereo unspecified), the IC50 [3] was > 100 µM (not active).

For `Cc1cc(C(=O)COC(=O)c2ccc[nH]c2=O)c(C)n1-c1ccc(Br)cc1`, the IC50 [4] was > 59.6 µM (not active), the IC50 [5] was 2.74 µM (active) and the IC50 [6] was > 73.5 µM (not active).

For `CCOc1ccc(C2NC(=O)C(C#N)=C(S)N2c2ccc(OC)cc2)cc1OC` (stereo unspecified), the IC50 [24] was 134 µM (active) and the IC50 [25] was > 100 µM (active).

In the case of `COc1ccc(OC)c(C2Nc3ccccc3N=C3CC(C)(C)CC(O)=C32)c1` (stereo unspecified), the AC50 [8] is reported as > 30 µM (inactive).

With `CCc1ccc(C(=O)CSC2=C(C#N)C(c3ccco3)C(C(C)=O)=C(C)N2)cc1` (stereo unspecified) the EC50 [16] was 14.4 µM (active) and the EC50 [20] was 15.7 µM (active).

With `CC1CCc2sc(NC(=O)C3CC(Cl)=CCC3C(=O)O)c(C#N)c2C1` (stereo unspecified) the IC50 [4] was > 59.6 µM (not active), the IC50 [5] was < 1 µM (active) and the IC50 [6] was > 73.5 µM (not active).

For `COC(=O)C1=C(C)N(Cc2ccccc2C(F)(F)F)C(NCc2ccccc2)=NC1c1ccc(Cl)cc1` (stereo unspecified), the IC50 [26] was > 96.6 µM (inactive).

For `Cc1ccc(C(=O)c2c[nH]nc2-c2cc(Cl)ccc2O)cc1`, the AC50 [9] was 28.2 µM (inconclusive) and the IC50 [3] was > 100 µM (not active).

In the case of `COC(=O)C1=C(C)N(Cc2ccccc2C(F)(F)F)C(NCc2ccc3c(c2)OCO3)=NC1c1cccc(Cl)c1` (stereo unspecified), the IC50 [26] is reported as > 96.6 µM (inactive).

For `COc1ccc(/N=C/c2c[nH]nc2O)cc1`, the IC50 [27] was 17.9 µM (active) and the IC50 [2] was > 100 µM (active).
